Measured values as given in PMC6891756, “Synthesis and Biological Evaluation of Novel Aminochalcones as Potential Anticancer and Antimicrobial Agents” (Molecules, 2019).
Values after ≈ are worked out from the molar mass of the structure shown.

Key:
Fusarium linii KB-F1 = assay: Microbial growth curve screening, F. linii; type: cell-based; conditions: 0.1% (w/v); for ∆OD F. linii: OD at 560 nm, control 1.95; for Lag-phase F. linii: control 13.5 h
Experimental: (§1) The antimicrobial screening tests were performed on two strains of bacteria: E. coli ATCC10536 and S. aureus DSM799, strain of yeast C. albicans DSM1386 and three strains of fungi: F. linii KB-F1, A. alternata CBS1526 and A. niger DSM1957. All microorganisms were obtained from the collection of the Faculty of Biotechnology and Food Microbiology, Wrocław University of Environmental and Life Sciences. The bacteria were cultured in nutrient broth (Biocorp, Warsaw, Poland), yeast and fungi in YM medium (3 g yeast extract, 3 g malt extract, 5 g bacteriological peptone and 10 g of glucose dissolved in 1 L of distilled water). The tests were carried out in 100-well microtiter plates. To each well 280 μL of culture medium, 10 μL of microorganism suspension and 10 μL of aminochalcone (1–18) dissolved in dimethyl sulfoxide (3% (w/v)) were added. The final concentration of the tested compound (1–18) was 0.1% (w/v). Each experiment were performed in 3 replications. The optical density of the cell suspension was measured on Bioscreen C (Automated Growth Curve Analysis System Lab System, Vantaa, Finland) at 560 nm automatically, at regular intervals of 30 min for 2–3 days. Cell cultures were maintained at 28 °C on a continuous shaker. To prepare the growth curves for each strain, the mean values of the absorbance in a function of time were used. The resulting antimicrobial activity was expressed as the increase of optical density (ΔOD) and was compared to that of the control cultures in the medium supplemented with dimethyl sulfoxide and also with reference substances: oxytetracycline (against bacteria), cycloheximide (against yeast) and nystatin (against fungi) (Sigma Aldrich).

HT-29 = assay: SRB antiproliferative assay, HT-29; type: cell-based, human; conditions: Homo sapiens, HT-29; SRB, 48 h, 1–100 µg·mL^−1; ND = not detected in the tested concentration range
Experimental: (§2) Anticancer activity was evaluated using the sulforhodamine B assay (SRB) on four different human colon cancer cell lines: HT-29, LS180, LoVo and LoVo/DX and green monkey kidney fibroblasts COS7 (ATCC, Manassas, VA, USA). Cell lines HT-29 and COS7 were cultured in α-MEM medium (IIET PAS, Wrocław, Poland), LS180 in OptiMEM medium (IIET PAS), LoVo and LoVo/DX in mixture of α-MEM and OptiMEM medium (1:1 (v:v)). Each culture medium was supplemented with 10% fetal bovine serum, 2 mM glutamine, 100 μg·mL^−1 penicillin, 100 μg·mL^−1 streptomycin and 0.25 μg·mL^−1 amphotericin (all supplements purchased from Gibco (Paisley, UK). Cells were incubated at 37 °C, 5% CO2 in HeraCELL 150i incubator (Thermo Fisher Scientific, Waltham, MA, USA).
(§3) For the SRB assay, cells were seeded onto 96-well plates (Sarstedt, Nümbrecht, Germany) at a density of 5·10^3/well and cultured overnight as described above. Then, the growth medium was gently removed and replaced with fresh medium, supplemented with aminochalcone derivatives in the concentration ranging from 1 µg·mL^−1 to 100 µg·mL^−1. All stock solutions were prepared in DMSO at a concentration of 10 mg·mL^−1. Cells were incubated for 48 h and then the SRB assay was performed as described previously. Each experiment was performed in quadruplicate. The final results were reported as the IC50 values calculated for three independent experiments. Cisplatin (Acros Organics, Waltham, MA, USA) and doxorubicin (Fisher BioReagents, Waltham, MA, USA) were used as positive controls of the test.

LoVo = assay: SRB antiproliferative assay, LoVo; type: cell-based, human; conditions: Homo sapiens, LoVo, 48 h, 1–100 µg·mL^−1, ND = not detected in the tested concentration range
Experimental: as §2, §3

[1] = SRB assay, normal fibroblasts COS7; type: cell-based, green monkey; conditions: green monkey, COS7 kidney fibroblasts (normal cell line), ND = not detected in the tested concentration range
Experimental: as §2, §3

[2] = tested on: Alternaria alternata CBS1526; assay: Microbial growth curve screening, A. alternata; type: cell-based; conditions: 0.1% (w/v); for ∆OD A. alternata: OD at 560 nm, control 1.86; for Lag-phase A. alternata: control 16.5 h
Experimental: as §1

[3] = tested on: Escherichia coli ATCC10536; assay: MIC evaluation (broth method), E. coli; type: cell-based; conditions: 48–72 h, read-out: Minimal inhibitory concentration E. coli
Experimental: (§4) Sterile 96-well microtiter plates (Sarstedt) with nutrient broth (for bacteria) (Biocorp) or YM medium (for yeast and filamentous fungi) were inoculated with a standardized cell suspension of bacteria and yeast or fungal spores of 10^5 cell·mL^−1, and supplemented with aminochalcones dissolved in DMSO. […] All analysis were conducted in triplicates. The plates were incubated at 30 °C (bacteria and yeast) or 25 °C (filamentous fungi) for 48–72 h. The results were measured with the Spark® Multimode Microplate Reader (Tecan, Männedorf, Switzerland) at a 560 nm wavelength. The minimal inhibitory concentration was defined as the lowest concentration of a tested compound that completely restricted the growth of the microorganism. In order to verify the obtained results, microbial cultures subjected to each concentration of aminochalcone were inoculated onto nutrient agar or YM plates and incubated as described above. The lack of growth on agar plate was a confirmation of the MIC of the tested compound. The resulting MIC values were compared with the reference substances: oxytetracycline (against bacteria), cycloheximide (against yeast) and nystatin (against fungi) (Sigma Aldrich).

[4] = tested on: Staphylococcus aureus DSM799; assay: Microbial growth curve screening, S. aureus; type: cell-based; conditions: 0.1% (w/v); for ∆OD S. aureus: OD at 560 nm, control 1.67; for Lag-phase S. aureus: control 2.5 h
Experimental: as §1

Candida albicans DSM1386 = assay: Microbial growth curve screening, C. albicans; type: cell-based; conditions: 0.1% (w/v); for ∆OD C. albicans: OD at 560 nm, control 1.58; for Lag-phase C. albicans: control 3.0 h
Experimental: as §1

LoVo/DX = assay: SRB antiproliferative assay, LoVo/DX; type: cell-based, human; conditions: Homo sapiens, LoVo/DX, 48 h, 1–100 µg·mL^−1, ND = not detected in the tested concentration range
Experimental: as §2, §3

[5] = tested on: Aspergillus niger DSM1957; assay: Microbial growth curve screening, A. niger; type: cell-based; conditions: 0.1% (w/v); for ∆OD A. niger: OD at 560 nm, control 2.14; for Lag-phase A. niger: control 11.0 h
Experimental: as §1

[6] = tested on: Escherichia coli ATCC10536; assay: Microbial growth curve screening, E. coli; type: cell-based; conditions: 0.1% (w/v), OD at 560 nm, control 1.61
Experimental: as §1

LS180 = assay: SRB antiproliferative assay, LS180; type: cell-based, human; conditions: Homo sapiens, LS180, 48 h, 1–100 µg·mL^−1, ND = not detected in the tested concentration range
Experimental: as §2, §3

[7] = tested on: Staphylococcus aureus DSM799; assay: MIC evaluation (broth method), S. aureus; type: cell-based; conditions: 48–72 h, read-out: Minimal inhibitory concentration S. aureus
Experimental: as §4

| SMILES | ∆OD F. linii (Fusarium linii KB-F1) | Lag-phase F. linii (Fusarium linii KB-F1) | IC50 (HT-29) | IC50 (LoVo) | IC50 at 48 h [1] | ∆OD A. alternata [2] | Lag-phase A. alternata [2] | MIC [3] | ∆OD S. aureus [4] | Lag-phase S. aureus [4] | ∆OD C. albicans (Candida albicans DSM1386) | Lag-phase C. albicans (Candida albicans DSM1386) | IC50 (LoVo/DX) | ∆OD A. niger [5] | Lag-phase A. niger [5] | ∆OD E. coli [6] | IC50 (LS180) | MIC [7] |
| --- | --- | --- | --- | --- | --- | --- | --- | --- | --- | --- | --- | --- | --- | --- | --- | --- | --- | --- |
| CCc1ccc(/C=C/C(=O)c2cccc(N)c2)cc1 [Compound 5, 3′-Amino-4-ethylchalcone] | 0.80 | 8.0 h | 3.43 ± 0.05 µg/mL (≈ 13.6 µM) | 1.79 ± 0.1 µg/mL (≈ 7.12 µM) | 4.42 ± 0.27 µg/mL (≈ 17.6 µM) | 0.39 | 12.0 h | 1 µg/mL (≈ 3.98 µM) | 0.98 | 29.5 h | 0.61 | 9.5 h | 2.35 ± 0.08 µg/mL (≈ 9.35 µM) | 0.36 | 25.5 h | 0.0 | 4.16 ± 0.12 µg/mL (≈ 16.6 µM) | – |
| CN(C)[C@@H]1C(O)=C(C(N)=O)C(=O)[C@@]2(O)C(O)=C3C(=O)c4c(O)cccc4[C@@](C)(O)[C@H]3[C@H](O)[C@@H]12 [Oxytetracycline, reference compound] | – | – | – | – | – | – | – | 0.5 µg/mL (≈ 1.09 µM) | 0.0 | – | – | – | – | – | – | 0.0 | – | 0.125 µg/mL (≈ 0.271 µM) |
| Nc1ccc(C(=O)/C=C/c2ccc(OCc3ccccc3)cc2)cc1 [Compound 15, 4′-Amino-4-benzyloxychalcone] | 0.50 | 11.5 h | 7.83 ± 0.14 µg/mL (≈ 23.8 µM) | 7.64 ± 0.53 µg/mL (≈ 23.2 µM) | 13.4 ± 2.78 µg/mL (≈ 40.6 µM) | 1.04 | 19.5 h | 0.125 µg/mL (≈ 0.379 µM) | 0.22 | 8.0 h | 0.37 | 16.0 h | 6.66 ± 0.48 µg/mL (≈ 20.2 µM) | 0.57 | 25.0 h | 0.0 | 8.23 ± 0.49 µg/mL (≈ 25 µM) | – |
| COc1cc(/C=C/C(=O)c2ccc(N)cc2)ccc1OCc1ccccc1 [Compound 18, 4′-Amino-4-benzyloxy-3-methoxychalcone] | 0.41 | 6.5 h | 5.01 ± 0.49 µg/mL (≈ 13.9 µM) | 3.54 ± 0.3 µg/mL (≈ 9.85 µM) | – | 0.22 | 21.5 h | 0.5 µg/mL (≈ 1.39 µM) | 0.26 | 33.5 h | 0.68 | 4.5 h | – | 0.65 | 28.5 h | 0.0 | 4.59 ± 0.29 µg/mL (≈ 12.8 µM) | – |
| COc1cccc2c1C(=O)c1c(O)c3c(c(O)c1C2=O)C[C@@](O)(C(=O)CO)C[C@@H]3O[C@H]1C[C@H](N)[C@H](O)[C@H](C)O1 [Compound 20, Doxorubicin, reference compound] | – | – | 0.33 ± 0.02 µg/mL (≈ 0.607 µM) | 0.73 ± 0.18 µg/mL (≈ 1.34 µM) | 3.55 ± 1.15 µg/mL (≈ 6.53 µM) | – | – | – | – | – | – | – | 5.32 ± 1.44 µg/mL (≈ 9.79 µM) | – | – | – | 0.05 ± 0.02 µg/mL (≈ 0.092 µM) | – |
| Nc1cccc(C(=O)/C=C/c2ccc(C(=O)O)cc2)c1 [Compound 8, 3′-Amino-4-carboxychalcone] | 0.45 | 13.0 h | 12.3 ± 0.32 µg/mL (≈ 46.1 µM) | 31.5 ± 0.13 µg/mL (≈ 118 µM) | 15.9 ± 1.04 µg/mL (≈ 59.6 µM) | 1.14 | 26.0 h | 0.125 µg/mL (≈ 0.468 µM) | 0.0 | – | 0.28 | 23.0 h | 27.44 ± 0.11 µg/mL (≈ 103 µM) | 1.11 | 39.0 h | 0.0 | 9.22 ± 0.72 µg/mL (≈ 34.5 µM) | 0.125 µg/mL (≈ 0.468 µM) |
| Nc1ccc(C(=O)/C=C/c2ccc(C(=O)O)cc2)cc1 [Compound 9, 4′-Amino-4-carboxychalcone] | 0.99 | 13.5 h | 32.4 ± 0.99 µg/mL (≈ 121 µM) | 73.5 ± 0.98 µg/mL (≈ 275 µM) | 32 ± 8.11 µg/mL (≈ 120 µM) | 1.12 | 12.5 h | 0.125 µg/mL (≈ 0.468 µM) | 0.35 | 37.0 h | 0.97 | 8.5 h | 66.2 ± 1.32 µg/mL (≈ 248 µM) | 0.51 | 35.0 h | 0.0 | 18.4 ± 0.19 µg/mL (≈ 68.7 µM) | – |
